Laboratory results: patent publication US9855281B2, “Libido-enhancing therapeutic and use” (Scott Freeman Consultant, LLC, priority 2013, dated 2018)
Entries after “also recorded” stand apart in the source; their conditions may differ.

Key:
[1] = test system: male rats; assay: In vivo libido stimulation assessment (mounts of rat couples); set-up: species or system Rattus novergicus, Wistar; settings: for mount kinetics profile along the night: FIGS. 12A-12F, time after coupling
Description: Female and male rats (Rattus novergicus) Wistar strain, with 200-280 g and 8-12 weeks old, were purchased from University of São Paulo Central Animal Care Unity. They were kept in controlled environment, including dark-light periods (12 hours each), temperature (22° to 25° C.), and with free access to water and food.
Female Wistar rats, weighing about 250 g, were ovariectomized. The procedure initiated inducing general anesthesia with Dopalen (Ketamin 70 mg/kg) and Anasedan (Xilazin 12 mg/kg), then abdominal wall was […] by the linea alba region, ovaries location, ligation of vessels supplying the ovaries and the procedure was completed with ovariectomy, itself, as well as the suture of the abdominal wall and skin. After surgery the animals received analgesic (tramadol 2 mg/kg), antibiotic (enrofloxacin, 10 mg/kg) and anti-inflammatory (Maxicam—2 mg/kg) for at least one week, or more if necessary.
Pseudo-estrus inducing. The females received estradiol (0.2 mg/day) subcutaneously for two weeks after ovariotomoy for pseudo-estrus state inducing. This condition was evaluated by vaginal smears each two days after estradiol treatment beginning. Sterile cotton-tipped swabs wetted in distilled water were gently and quickly introduced into the vaginal orifice, carefully rotated (one twist) against the vaginal wall. Rats were not anesthetized during smear collection. Afterwards, the collected sample of vaginal epithelial cells was placed on glass slides, dried at 37° C., and fixed in an ethanol-ether solution (1:1) for one minute.
The slides were then examined under light microscopy. Only females in pseudo-estrus conditions were used for libido stimulation assessment (PACCOLA et al, 2013).
Libido stimulation assessment. For libido stimulation assessments, first male rats, weighing about 250-280 g, had their penis anesthetized with 2% lidocaine by topical route 10 minutes before treatment. The three drugs were administered orally at 50 mg/kg each two days for six days (each rat received three doses). Nandrolone (IM) was used as the positive control group while olive oil and water were used as negative controls (orally administrated), as described below in TABLE 2. After one hour of treatment, couples were put together in a box, and a video camera with night vision was adequately positioned to encompass all the groups in the video, recording overnight the matches.
Analysis of the videos was performed according to the following parameters: time to first mating, duration of mounts, and quantity of mounts.
The libido studies focused the investigation in how drugs would stimulate male rats to increase matching. Considering that sexual activity in animals is related with reproduction and not only with pleasure, assessment of increase desire is particular subjective. To ensure that the observations were related with Central Nervous System modulation, 2% Lidocaine was topically applied at penis glans, to avoid any local stimulation.
The animals were treated each two days with 50 mg/Kg of test drugs (given orally), water and olive oil as negative control (given orally) and nandrolone (IM).

[2] = test system: human; assay: Accidental physical contact of a human with the compositions (Example 1); format: in vivo; settings: accidental physical contact with Formulas (I), (II) and (III) together while synthesizing
Source text: A human came in physical contact with the compositions of the libido-enhancing therapeutics of Formula (I), Formula (II), and Formula (III) by accident while synthesizing the compositions.

[3] = rats, 50 mg/Kg orally, nandrolone IM

## CC(=O)O[C@H]1CCC2C3CC[C@H]4CC(=O)CC[C@H]4C3CC[C@@]21C (stereo partly drawn) [Formula (I), (5S,10R,13S,17S)-13-methyl-3-oxohexadecahydro-1H-cyclopenta[a]phenanthren-17yl acetate]
[1]; FIG. 10, 50 mg/Kg orally each two days, three doses, nandrolone IM, compared with controls and other drugs
  total number of mounts after each treatment: significantly increased
[1]; FIG. 11, 50 mg/Kg orally, nandrolone IM
  number of mounts per hour, difference to nandrolone: more than twice
[1]; 50 mg/Kg orally, nandrolone IM, listed as CAS 5138-34-1, 50 mg/kg
  mount kinetics profile along the night: low activity at the first three hours after coupling; also recorded: intense and sustainable activity was achieved after the third hour until the seventieth hour of observation
[1]; 50 mg/Kg orally, nandrolone IM, listed as CAS 5238-34-1, 50 mg/kg
  mount kinetics profile along the night: took a long time to have some effect
[1]; rats, 50 mg/Kg orally
  stress or fatigue after each intercourse: no kind of stress of fatigue was observed
[1]; [3]
  libido stimulation: effective and sustainable late libido stimulation for greater than seven hours
[2]
  arousal and libido: weekend-long period of arousal and increased libido

## CC(=O)O[C@H]1CCC2C3CC[C@H]4C[C@@H](O)CC[C@H]4C3CC[C@@]21C (stereo partly drawn) [Formula (II), (3S,5S,10R,13S,17S)-3-hydroxy-13-methylhexadecahydro-1H-cyclopenta[a]phenanthren-17yl acetate]
[1]; 50 mg/Kg orally, nandrolone IM
  mount kinetics profile along the night: total decrease of activity after 2 hours coupling
[2]
  arousal and libido: weekend-long period of arousal and increased libido

## C[C@]12CCC3C(CC[C@H]4CC(=O)CC[C@H]34)C1CC[C@@H]2O (stereo partly drawn) [Formula (III), (5S,10S,13S,17S)-17-hydroxy-13-methyltetradecahydro-1H-cyclopenta[a]phenanthren-3(2H)-one]
[1]; 50 mg/Kg orally, nandrolone IM
  mount kinetics profile along the night: few mounts in subsequently hours
[2]
  arousal and libido: weekend-long period of arousal and increased libido

## C[C@]12CC[C@H]3[C@@H](CCC4=CC(=O)CC[C@@H]43)[C@@H]1CC[C@@H]2O [Nandrolone, reference compound]
[1]; 50 mg/Kg orally, nandrolone IM
  mount kinetics profile along the night: low stimulation at the first three hours with a peak of activity at the fourth hour retuning to baseline (zero activity) at the sixth hour
[1]; [3]
  libido stimulation: enhance libido early (hours)
